Drawing on patent publication US10744209B2, “Biodegradable polymeric nanoparticle conjugates and use thereof” (NEW YORK UNIVERSITY, priority 2015, dated 2020), this text covers half-life in vivo and RANKL-induced osteoclast differentiation for two molecules.

The conditions of series [1]: cited from earlier work.
The subject of series [2] is RAW264.7 cells. Put plainly: RANKL-induced osteoclast differentiation, TRAP staining. In kind it is cell-based. The following applies: 50 ng/ml RANKL; CGS21680 10^−6M; four days. The method, then:
Tartrate-resistant acid phosphatase (TRAP) staining was carried out. The number of TRAP-positive MNCs containing ≥3 nuclei/cell was scored.

Consider `Nc1ncnc2c1ncn2[C@@H]1O[C@H](CO)[C@@H](O)[C@H]1O` [Adenosine, adenosine], for which the half-life in vivo in series [1] is below 10 s.

Turning to `CCNC(=O)[C@H]1O[C@@H](n2cnc3c(N)nc(NCCc4ccc(CCC(=O)O)cc4)nc32)[C@H](O)[C@@H]1O` [CGS21680], in series [2], the RANKL-induced osteoclast differentiation entry is “block”.
